These are literature values, as cited in patent US8815303B2, “Multifunctional compositions having combined insecticidal, miticidal and fungicidal activity” (priority 2004, dated 2014).

The subject of one data set is rose powdery mildew. Particulars: intact plants, after one adaxial foliar spray application.
In data set [1] the test system is powdery mildew and/or blackspot. Particulars: for management of powdery mildew and/or blackspot: weekly sprays of 0.5% (w/w) aqueous solution.
[2] abbreviates: 0.5% concentration (the more effective dose).

Where two headings read alike, the source gives them in different places.

Take `O=C([O-])O.[K+]` [potassium bicarbonate]: the host epidermal layers result in the data set with rose powdery mildew is “recover completely from infection”. Besides, in the data set with rose powdery mildew, the superficial pathogen structures result is recorded as “eradicated”. For the same molecule, the powdery mildew severity entry in data set [1] (0.25% concentration) and in data set [1] (setting [2]) was “significantly reduce” each time. In addition, in data set [1], the “management of powdery mildew and/or blackspot” value was “significantly managed”.

Consider `O=C([O-])O.[Na+]` [sodium bicarbonate], for which the powdery mildew severity result in data set [1] (0.25% concentration) and in data set [1] (setting [2]) was “significantly reduce” in each case. Besides, in data set [1], the “management of powdery mildew and/or blackspot” value was “significantly managed”.
